Measurements reported in patent US20080287384A1, “Methods of Identifying Agents Having Antiangiogenic Activity” (priority 2005, published 2008).

What was measured:
HMVECs [1] = assay: Endothelial cell migration assay (modified Boyden chamber); type: cell-based, human
Description: Endothelial Cell Migration Assay-The endothelial cell migration assay was performed as described in, […], Methods Mol Med. 78: 337-47 (2003), incorporated herein by reference. Briefly, HMVECs were starved overnight in media containing 0.1% bovine serum albumin (BSA), harvested, resuspended in DME with 0.1% BSA, plated on the bottom side of a modified Boyden chamber (Nucleopore Corporation, MD), and allowed to attach in the inverted chamber for 2 hours at 37° C. The chamber was then re-inverted, test substances added to the wells of the upper chamber and cells were allowed to migrate for four hours at 37° C. Membranes were recovered, fixed and stained and the number of cells that had migrated to the upper chamber per ten high power fields was counted. Background migration in DME+0.1% BSA was subtracted and the data reported as the number of cells migrated per 10 high power fields (400×). VEGF (R&D Systems, Minneapolis, Minn.) was used as a positive control at a concentration of 100 pg/ml.

[2] = test system: HMVECs in scaffolds implanted in SCID mice; assay: SCID mouse model of human angiogenesis, in vivo microvessel density; settings: daily local injection for 5 days
Text: A further assay for evaluating inhibition of tubule formation suitable for use in the presently described methods is an in vivo assay of microvessel density. In this regard, functional human microvessels can be engineered in SCID mice by implanting human dermal microvascular endothelial cells (HMVECs) seeded in biodegradable scaffolds, as described by Nor J E, et al., Lab Invest 81: 453-63 (2001), incorporated herein by reference. These cells organize into microvessels that anastomose with the host vasculature and transport mouse blood cells. Differences in vessel density are quantified post-euthanization by standard immunohistochemical techniques using, for example, anti-human CD31, and counting the number of CD31-positive vessels in a set number of random fields.
SCID Mouse Model of Human Angiogenesis—Functional human microvessels were induced in severe combined immunodeficient (SCID) mice (CB-17 SCID; Taconic, Germantown, N.Y., USA). […]
Determination of In Vivo Microvessel Densities—Formalin fixed, paraffin-embedded implants were generated in order to quantify differences in vessel densities in the tumors of the treated and untreated animals. […] The number of CD31+blood vessels was counted in 10 random fields per sponge using an optical microscope (×400).

endothelial cells = settings: 0.3 mM, low serum conditions, data not shown
CREB, a substrate of PKA = assay: Phospho-CREB western analysis; settings: HMVEC lysates; forskolin given with IBMX per FIG. 5B legend
Description: Cell lysate extraction and western analysis—Cell lysates were collected, resolved by SDS-PAGE, and analyzed by western blot using anti-Phospho-CREB (Ser133) antibody or anti-tubulin antibody at a dilution of 1:1000 or anti-Rap1 at a dilution of 1:500, using standard methods as described in Kuo, W L et al., J. Biol. Chem. 279: 23073-81 (2004), incorporated herein by reference.

HMVECs [3] = assay: Cell morphology / actin stress fiber staining; type: cell-based, human; settings: treated or lentivirus-transduced
[4] = test system: age-related macular degeneration; settings: 1-2 drops of 0.1% w/v aqueous ophthalmic composition, each eye twice daily
Description: A patient complaining of vision loss is diagnosed with age-related macular degeneration.

Rap1 = type: cell-based, human; settings: HMVECs
Description: Briefly, cells are lysed in a suitable lysis buffer and clarified by centrifugation. Clarified lysates are incubated with a GST fusion protein containing the Rap-1 binding domain of Ral-GDS coupled to glutathione-sepharose beads. Proteins bound to the beads are then extracted and resolved by sodium dodecyl sulfate-polyacrylamide gel electrophoresis (SDS-PAGE) and subjected to western blot analysis using anti-Rap-1 antibodies.
Rap1 pull down assay—HMVECs were grown to subconfluent in 100 mm plates, starved in EBM2 medium plus 0.1% BSA over night and treated as indicated.

Description for mouse cornea: The effect of 8CPT-2Me-cAMP treatment on FGF-induced angiogenesis was investigated using the mouse corneal assay. Mice were injected with either 0.6 or 6 μmoles of 8CPT-2Me-cAMP, concentrations similar to those used for the skin implant scaffolds.

`O=C(Nc1ncnc2c1ncn2[C@@H]1O[C@@H]2COP(=O)(O)O[C@H]2[C@H]1O)c1ccccc1` [6-Benz-cAMP, N^6-Benzoyladenosine-3′,5′cyclic monophosphate] was tested, and the “effect on VEGF-induced chemotaxis” value (HMVECs [1]) was “no effect”.
For `CO[C@@H]1[C@@H]2OP(=O)(O)OC[C@H]2O[C@H]1n1c(Sc2ccc(Cl)cc2)nc2c(N)ncnc21` [8CPT-2Me-cAMP, 8-(4-chlorophenylthio)-2′-O-methyladenosine-3′,5′cyclic monophosophate], the “inhibition of number of microvessels” value ([2]; 0.03 μmoles per implant) was “roughly 50%”, the “inhibition of number of microvessels” value ([2]; 0.3 μmoles per implant) was “greater than 90%” and the apoptotic induction (endothelial cells) was “did not detect apoptotic induction”. The “average area of vascularization relative to control mice” value (mouse cornea; 0.6 μmoles) was “about half”, the “mice with detectable vascularization” value (mouse cornea; 0.6 μmoles, control 6 out of 6) was 6 out of 8 and the FGF-induced angiogenesis (mouse cornea; 6 μmoles (higher dose)) was “effectively suppressed”. For the same compound, the mice showing angiogenesis (mouse cornea; 6 μmoles, control 6 out of 6) was 1 out of 10, the “concentration giving complete inhibition of VEGF-stimulated migration” value (HMVECs [1]) was 2.5 µM and the “migration in the absence of VEGF (nonspecific/background migration)” value (HMVECs [1]; no VEGF) was “no suppression”. For the same compound, the CREB phosphorylation (CREB, a substrate of PKA) was “did not induce significant CREB phosphorylation”, the cell morphology (HMVECs [3]) was “this effect could be mimicked” and the ocular function [4] was “noticeable improvement”. The “Rap1 activation (GTP-bound Rap1)” value (Rap1) was “robust stimulator”.
With `C[C@@H](N)[C@H]1CC[C@H](C(=O)Nc2ccncc2)CC1` [Y-27632] the “effect on VEGF-induced chemotaxis” value (HMVECs [1]) was “dose-dependent inhibition”.
